Results published in US20170014375A1, “PHARMACEUTICAL COMPOSITION COMPRISING EFFECTIVE DOSE OF POMIFERIN FOR TREATING CANCERS” (Macau University of Science and Technology, priority 2015, published 2017).

Legend:
Format in all cases: cell-based
[1] = tested on: HepG2 (human liver cancer) cells; assay: MTT cytotoxicity assay, HepG2; settings: 72 h, 3 days, read-out: Means of IC50
Experimental: (§1) Pomiferin is dissolved in DMSO at a final concentration of 100 mmol/L and stored at −20° C. Cytotoxicity is assessed using the 3-(4,5-dimethylthiazol-2-yl)-2,5-diphenyltetrazolium bromide assay. 4000-8000 HeLa (human cervical cancer), MCF-7 (human breast cancer), HepG2 and Hep3B (human liver cancer), H1299 and A549 (human lung cancer), LNCap (human prostate cancer) and LLC-1 (mouse Lewis lung carcinoma) cells are seeded on 96-well plates per well. After overnight pre-incubation, the cells are exposed to different concentrations of pomiferin ([…]) for 3 days. Subsequently, 10 μL of MTT reagents is added to each well and incubated at 37° C. for 4 hours followed by the addition of 100 μL solubilization buffer (10% SDS in 0.01 mol/L HCl) and overnight incubation. Absorbance at 585 nm is determined from each well the next day. The percentage of cell viability is calculated using the following formula: Cell viability (%)=Cells number treated/Cells number DMSO control×100. Data are obtained from three independent experiments.

[2] = tested on: caspase wild-type (caspase WT) mouse embryonic fibroblasts; assay: MTT cytotoxicity assay, caspase WT MEFs; settings: Fibroblast, 72 h, 3 days, read-out: Means of IC50
Experimental: (§2) The test compound of pomiferin is dissolved in DMSO at a final concentration of 100 mmol/L and stored at −20° C. Cytotoxicity is assessed using the 3-(4,5-dimethylthiazol-2-yl)-2,5-diphenyltetrazolium bromide assay as previously described^29. 2500 of caspase wild-type (caspase WT), caspase-3 deficient (caspase 3KO), caspase-7 deficient (caspase 7KO), caspase-3/-7 deficient (caspase 3/7 DKO), caspase-8 deficient (caspase 8KO), Bax-Bak wild-type (Bak-Bak WT) and Bax-Bak double knock out (Bak-Bak DKO) mouse embryonic fibroblasts (MEFs) are seeded on 96-well plates per well. After overnight pre-incubation, the cells are exposed to different concentrations of pomiferin (namely 100, 50, 25, 12.5, 6.25, 3.125, 1.5625, 0.78, 0.39, 0.195, 0.079, 0.039 μmol/L) for 3 days. Subsequently, 10 μL of MTT reagents is added to each well and incubated at 37° C. for 4 hours, followed by the addition of 100 μL solubilization buffer (10% SDS in 0.01 mol/L HCl) and overnight incubation. Absorbance at 585 nm is determined from each well on the following day. The percentage of cell viability is calculated using the following formula: Cell viability (%)=Cells numbertreated/Cells numberDMSO control×100. Data is obtained from three independent experiments.

[3] = tested on: caspase-7 deficient (caspase 7KO) mouse embryonic fibroblasts; assay: MTT cytotoxicity assay, caspase 7KO MEFs; settings: Fibroblast, 72 h, 3 days, read-out: Means of IC50
Experimental: as §2

[4] = tested on: HCT-116 p53−/− isogenic colon cancer cells; assay: MTT cytotoxicity assay, HCT116 p53−/−; settings: Homo sapiens, HCT-116, 72 h, HCT116 p53−/− (p53-deficient), 3 days, read-out: Means of IC50
Experimental: as §2, with “4000” for “2500”, “drug-resistant HCT-116 p53+/+, HCT-116 p53−/−” for “caspase wild-type (caspase WT), caspase-3 deficient (caspase 3KO), caspase-7 deficient (caspase 7KO), caspase-3/-7 deficient (caspase 3/7 DKO), caspase-8 deficient (caspase 8KO), Bax-Bak wild-type (Bak-Bak WT)”, “HCT-116 p53−/− isogenic colon cancer cells” for “Bax-Bak double knock out (Bak-Bak DKO) mouse embryonic fibroblasts (MEFs)”, “[…])” for “μmol/L)”

[5] = tested on: caspase-3/-7 deficient (caspase 3/7 DKO) mouse embryonic fibroblasts; assay: MTT cytotoxicity assay, caspase 3/7 DKO MEFs; settings: Fibroblast, 72 h, 3 days, read-out: Means of IC50
Experimental: as §2

[6] = tested on: HeLa (human cervical cancer) cells; assay: MTT cytotoxicity assay, HeLa; settings: 72 h, 3 days, read-out: Means of IC50
Experimental: as §1

[7] = tested on: Atg7 wild-type (Atg7+/+) mouse embryonic fibroblasts; assay: Endogenous autophagic LC3 puncta, Atg7 wild-type MEFs; settings: 2 μM, FIG. 6A
Experimental: Endogenous LC3 puncta formation is quantified as previously described^2. In brief, both Atg7 wild-type and deficient mouse embryonic fibroblasts (MEFs) grown on coverslips in a 6-well plate are treated with indicated concentrations of pomiferin. Both Atg7 wild-type and deficient mouse embryonic fibroblasts are then fixed in 4% paraformaldehyde for 20 minutes at room temperature and then rinsed with PBS. After washing with PBS, the cells are then incubated with anti-LC3 (1:200) in TBST (100 mM Tris HCl, pH 7.5, 150 mM NaCl, 0.05% Tween 20 and 5% BSA) overnight at 4. After washing with PBS, the cells are incubated with anti-mouse secondary antibody (TRITC) 1:200 in TBST containing 5% BSA at 37 for 1 hrs in the dark. The coverslips are then mounted with FluorSave™ mounting media (Calbiochem, San Diego, Calif., USA) for fluorescence imaging and localization of LC3 autophagosomes are captured under the API Delta Vision Live-cell Imaging System (Applied Precision Inc., GE Healthcare Company, Washington, USA). To quantify for autophagy, the percentage of cells with punctate TRITC-LC3 fluorescence is calculated by counting the number of the cells with punctate TRITC-LC3 fluorescence in TRITC-positive cells. A minimum of 150 cells from 3 randomly selected fields is scored.

[8] = tested on: panel of human and mouse cancer cells; assay: MTT cytotoxicity assay, panel of human and mouse cancer cells; settings: 72 hours, read-out: mean IC50 value range over the panel
Experimental: as §1

CC(C)=CCc1c2c(c3occ(-c4ccc(O)c(O)c4)c(=O)c3c1O)C=CC(C)(C)O2 [pomiferin]
IC50 [1]: 13.6 µM
IC50 [2]: 7.63 µM
IC50 [3]: 3.95 µM
IC50 [4]: 6.12 µM
IC50 [5]: 2.21 µM
IC50 [6]: 7.36 µM
TRITC-LC3 puncta formation [7]: induce TRITC-LC3 puncta formation
IC50 [8]: 3.82 to 20.3 µM
